Results taken from publication PMC8689208, “Structure of a monomeric photosystem II core complex from a cyanobacterium acclimated to far-red light reveals the functions of chlorophylls d and f” (The Journal of Biological Chemistry, 2021).

Target: T1, apo-FRL-PSII (reaction centre PsbA3/PsbD3 sites) (Synechococcus sp. PCC 7335, UniProt B4WKI3+Z9EN74SDD1)
T1 construct: native monomeric core complex from FRL-acclimated cells, ~226 kDa modelled; His6 tag at C-terminus of PsbC2; lacks OEC, extrinsic subunits and PsbH2 in map; PsbF2 assignment tentative; one unknown helix; with Photosystem II CP47 reaction center protein; Photosystem II CP43 reaction center protein; Cytochrome b559 subunit alpha; Cytochrome b559 subunit beta; Photosystem II reaction center protein I; Photosystem II reaction center protein K
Assay: cryo-EM structure, […] Å
Format: binding
Settings: QA site; QB absent

CC(C)=CCC/C(C)=C/CC/C(C)=C/CC/C(C)=C/CC/C(C)=C/CC/C(C)=C/CC/C(C)=C/CC/C(C)=C/CC/C(C)=C/CC1=CC(=O)C(C)=C(C)C1=O [plastoquinone]
cryo-EM structure, 2.25 Å: one heme b, one plastoquinone, one NH-Fe ion
